Source: patent US12655111B2, “Phenazine-based compounds” (CMBLU Energy AG, priority 2020, dated 2026)

Assay: Redox flow battery cell test (flow-through laboratory cell), galvanostatic charge/discharge cycling with phenazine anolyte and ferrocyanide catholyte
Assay type: physicochemical
Details: range: (i) upper charging value minus initial discharging value, (ii) initial charging value minus ultimate discharging value; from Table 1 (for II 0.87M)
Source text: FT-Cells (“Flow Through”):
For electrochemical characterization, a small laboratory cell was used. A graphite felt (with an area of 6 cm^2, 6 mm in thickness, supplier: SGL Sigracell GFA 6EA) in combination with a bipolar plate (4.1 cm×4.1 cm, SGL Sigracell TF6) was employed as both the positive and negative electrode. A cation exchange membrane (630K or 620PE, supplier: fumatech) was used to separate the positive and negative electrolytes. The membrane was conditioned in 0.5 M Base (KOH/NaOH=50 mol %/50 mol %) for at least 150 h prior to each test. An anolyte volume of 12 mL was used for every experiment while the pH of the anolyte solution is adjusted using a 1:1 mixture of KOH/NaOH or solely KOH. The catholyte compositions are listed in table 1 and the catholyte was always employed in at least 1.05 fold stoichiometric excess in order to obtain charge limitation solely due to the phenazine electrolyte (see table 1). The catholyte volume for (IV) is 60 mL (0.4 M KOH; 0.4 M NaOH), for (III) 30 mL (0.2 M KOH and 0.2 M NaOH), and for (I) 20 mL (0.3 M KOH and 0.3 M NaOH). Both electrolytes were pumped by peristaltic pumps (Drifton BT100-1L, Cole Parmer Ismatec MCP and BVP Process IP 65) at a rate of 24 mL/min to the corresponding electrodes, respectively. The electrolyte reservoirs were purged with N2 gas for 1 h before start of charging and the inert atmosphere was maintained during the course of the experiments.
Electrochemical testing was performed on a BaSyTec (BaSyTec GmbH, 89176 Asselfingen, Germany) or a Bio-Logic (Bio-Logic Science Instruments, Seyssinet-Pariset 38170, France) battery test system. For galvanostatic cycling, the cell was charged at a current density of […] and discharged at the same current density with the in table 1 listed voltage cut-offs. […]

Row | SMILES | difference in plateaus [V]
1 | O=S(=O)(O)c1ccc2nc3cc(O)c(O)cc3nc2c1 [DHPS, 7,8-Dihydroxyphenazine-2-sulfonic acid, reference compound] | 0.29-0.32 V
2 | CN(C)c1cc2nc3ccc(S(=O)(=O)O)cc3nc2cc1O [I, 7-(dimethylamino)-8-hydroxyphenazine-2-sulfonic acid] | 0.15-0.16 V
3 | CN(CCO)c1cc2nc3ccc(S(=O)(=O)O)cc3nc2cc1O [IV, 7-[(2-hydroxyethyl)(methyl)amino]-8-hydroxyphenazine-2-sulfonic acid] | 0.20-0.25 V
